Experimental data taken from US20240277744A1, “TREATMENT OF CHEMORESISTANT CANCER CELLS” (Cornell University, priority 2023, published 2024).
Counter-ions that a name gives are not always drawn. One block for each compound: values may come before it.

Experiments:
A549 cell line = test: Flow cytometry of TRA-1-81+ cells; format: cell-based
Description: (§1) Flow cytometry. TRA-1-60 PerCP-efluor710 (eBioscience, 1:50) and TRA-1-81 PE (eBioscience, 1:100) were used. Cells were blocked with 5% FBS plus mouse IgM isotype control antibody (eBioscience, 1:100) at room temperature for 15 min, then stained on ice for 30 min. Stained cells were resuspended in PBS containing 300 nM DAPI and proceeded to analysis or sorting. Cell apoptosis was analyzed with FITC-AnnexinV labeling reagent (BD). Flow cytometry analysis was carried out on BD FACS Calibur with FlowJo 9.8 software. Sorting was performed with FACSVantage SE (Becton Dickinson).

TRA-1-81+ SW1990 cells = test: Flow cytometry of TRA-1-81+ cells; format: cell-based; conditions: SW1990; 5 days; GEM 50, 100 or 250 nM; flow cytometry
Description: as §1

SW1990 cells = test: Cell viability (DAPI nuclei count, high content imaging); format: cell-based; conditions: Homo sapiens; parental SW1990; read-out: IC50 for GEM (viability)
Description: (§2) Cell viability, colony formation, sphere formation and growth curve. To quantify viability, cells were plated into 96-well plates (6000/well) one night before treatment. […] After fixation, cell nuclei were stained with DAPI (Invitrogen). Plates were analyzed using MetaXpress High Content Image Acquisition and Analysis System (Molecular Devices).

SW1990GR cells = test: as above; format: cell-based; conditions: GEM-resistant line, read-out: IC50 for GEM (viability)
Description: To establish GR cell lines, cells were first cultured with 10 nM GEM till cell growth became stable. […] Once cell growth became stable in 100 nM GEM, cells were expanded in 100 nM GEM and used in assays.
as §2

DU145 cell line = test: Flow cytometry of TRA-1-81+ cells; format: cell-based; conditions: DU145; flow cytometry
Description: as §1

HCT116 cell line = test: Flow cytometry of TRA-1-81+ cells; format: cell-based; conditions: HCT116; flow cytometry
Description: as §1

HT29 cell line = test: Flow cytometry of TRA-1-81+ cells; format: cell-based
Description: as §1

RKO cell line = test: Flow cytometry of TRA-1-81+ cells; format: cell-based
Description: as §1

SW1990 xenograft tumors [1] = test: Luciferase-labeled SW1990 xenograft in nude mice; format: in vivo
Description: CYM suppresses TRA-1-60 expression and blocks tumor growth in vivo. Next it was sought to validate the effects of CYM in vivo, using a xenograft model with luciferase-labeled SW1990 cells propagated in nude mice. Tumor-harboring mice were separated into 4 groups and treated with PBS (control), 2 mg/kg CYM, 50 mg/kg GEM, or 2 mg/kg CYM plus 50 mg/kg GEM through intraperitoneal injections twice per week. Luciferase intensity was quantified twice per week and normalized with the value obtained from the starting day. […] Consistent with imaging, of the four groups, mice treated with GEM plus CYM generated xenograft tumors with the smallest size (FIG. 6C) and weight (FIG. 6D).
(§3) Tissue samples were fixed with 4% paraformaldehyde overnight at 4° C., washed with 70% ethanol and then embedded in paraffin. After De-paraffin and rehydration, antigen retrieval was preceded in hot antigen retrieving buffer with a normal-pressure steamer for 30 min. blocking was proceeded 1 hour at room temperature in PBS containing 1% horse serum. Primary antibody was stained overnight at 4° C. in PBS plus 0.5% Triton X-100 and 5% horse serum. Secondary antibody was incubated at room temperature for 1.5 hours.
Mouse Procedures. To assess in vivo effects of Cymarin (CYM), Luciferase-labelled SW1990 cells were transplanted to nude mice subcutaneously. Each mouse received four injections (5×10^5 cells/site). 12 days later, mice were randomly separated into 4 groups and treated with PBS (control), GEM (50 mg/kg bodyweight), CYM (2 mg/kg bodyweight) or GEM (50 mg/kg bodyweight) plus CYM (2 mg/kg bodyweight) twice weekly via intraperitoneal injection. Image acquisition was performed twice weekly with Xtreme Optical and X-ray small animal imaging system. Luciferin potassium salt (Regis), substrate of luciferase, was applied at 2 mg/25 g bodyweight in 150 μl PBS. Isoflurane (Henry Schein) was used for anesthesia during imaging.

SW1990 xenograft tumors [2] = test: GEM-resistant SW1990 xenograft passaged in nude mice; conditions: 50 mg/kg GEM i.p. twice a week, 3 passages in vivo, vs PBS control
Description: Whether the epitope of TRA-1-60 and TRA-1-81 antibodies also enriches CCCs in vivo, with xenograft tumors in nude mice derived from SW1990 cells implanted subcutaneously, was examined. Mice carrying tumors were randomly separated into two groups: one was treated with 50 mg/kg GEM via intraperitoneal injection twice a week for 4 weeks; the other was treated with the same volume of PBS as control. After 3 passages in vivo (˜6 months), the control and GR xenograft tumors were analyzed with immunofluorescence (FIG. 1K).
as §3

[3] = test system: primary human xenograft tumor; test: Patient derived pancreatic adenocarcinoma xenograft in nude mice; format: in vivo; conditions: 50 mg/kg GEM twice weekly, one month; not in control tumors
Description: To examine whether TRA-1-60 expression correlates with chemotherapy treatment in primary tumors, a human pancreatic adenocarcinoma specimen was freshly collected after surgery, transplanted to nude mice and expanded subcutaneously. Mice carrying the primary human xenograft tumor were separated into two groups: one group was treated with 50 mg/kg GEM twice weekly while the other group received the same volume of PBS as control. After one month, xenograft tumors were stained with TRA-1-60 antibody. TRA-1-60 staining was detected in GEM-treated xenograft tumors but not control xenograft tumors (FIG. 7C, D), confirming that TRA-1-60 expression is positively correlated with chemoresistance.
as §3

TRA-1-60+ SW1990GR cells = test: High content screen / immunofluorescent staining of TRA-1-60+ cells; format: cell-based; conditions: SW1990GR
Description: Immunofluorescent staining. Primary antibodies were TRA-1-60 antibody (BD, 1:200), biotin conjugated TRA-1-60 antibody (eBioscience, 1:200). Secondary antibodies were donkey anti-mouse Alexa-efluor594 (Life technologies, 1:500) or streptavidin conjugated Alexa Fluor® 594 (Life technologies, 1:200).
Cells were fixed with 10% formalin for 20 min at room temperature. After 1 hour blocking in PBS with 5% horse serum and 0.3% triton-X100, primary antibodies were added to cells and incubated overnight at 4° C. Secondary antibody incubation was 1.5 hours at room temperature.
Chemical library screening. The Prestwick library of FDA approved drugs (˜1280 chemicals) plus a collection of drugs in clinical trials was used for the screen on SW1990GR cells.
For screening, SW1990GR cells were plated in 384-well plates (5000 cells/well). After overnight incubation, chemicals were added at 1 μM or 10 μM in duplicate. After 5 days of treatment, plates were stained with TRA-1-60 antibody and analyzed with MetaXpress High Content Image Acquisition and Analysis System (Molecular Devices). Wells treated with DMSO were set as control. The reduction was calculated by subtracting the percentage of TRA-1-60^+ cells in the chemical-treated wells from that of control wells. Standard deviation of TRA-1-60^+ percentage in control wells was calculated and 3-fold of this value was taken as threshold to pick up the primary hit.

Compound: CCc1c2c(nc3ccc(OC(=O)N4CCC(N5CCCCC5)CC4)cc13)-c1cc3c(c(=O)n1C2)COC(=O)[C@]3(O)CC [CPT-11, Irinotecan hydrochloride]
- TRA-1-81+ cell population after acute drug treatment (A549 cell line): significant enhancement
- TRA-1-81+ cell population after acute drug treatment (TRA-1-81+ SW1990 cells): highly enriched

- IC50 (SW1990GR cells): 59.4 ± 5.3 nM
Compound: Nc1ccn([C@@H]2O[C@H](CO)[C@@H](O)C2(F)F)c(=O)n1 [GEM, Gemcitabine hydrochloride]
- IC50 (SW1990 cells): 9.6 ± 3.2 nM
- TRA-1-81+ cell population after acute drug treatment (A549 cell line): significant increase
- TRA-1-81+ cell population after acute GEM treatment (DU145 cell line): significant increase
- TRA-1-81+ cell population after acute GEM treatment (HCT116 cell line): significant increase
- TRA-1-81+ cell population after acute GEM treatment (HT29 cell line): significant increase
- TRA-1-81+ cell population after acute GEM treatment (RKO cell line): significant increase
- TRA-1-81+ cell population after acute drug treatment (TRA-1-81+ SW1990 cells): significant increase
- tumor growth (luciferase intensity) (SW1990 xenograft tumors [1]; 3 weeks, i.p. twice per week, GEM 50 mg/kg, CYM 2 mg/kg): grew more slowly
- percentage of TRA-1-60+ cells in xenograft tumors (SW1990 xenograft tumors [1]; GEM-treated tumors without CYM, immunofluorescence): ~27%
- percentage of TRA-1-60+ cells in GR xenograft tumors (SW1990 xenograft tumors [2]): significantly increased
- TRA-1-60 staining in patient derived xenograft tumors [3]: detected

Compound: C[C@@H]1O[C@@H](O[C@H]2C[C@@H](O)[C@]3(CO)[C@H]4[C@H](O)C[C@]5(C)[C@@H](C6=CC(=O)OC6)CC[C@]5(O)[C@@H]4CC[C@]3(O)C2)[C@H](O)[C@H](O)[C@H]1O [Ouabain]
- validation of primary hit (TRA-1-60+ SW1990GR cells): able to be validated

Compound: Nc1nc2[nH]cc(CCc3ccc(C(=O)N[C@@H](CCC(=O)O)C(=O)O)cc3)c2c(=O)[nH]1 [PMX, Pemetrexed disodium heptahydrate]
- TRA-1-81+ cell population after acute drug treatment (A549 cell line): significant enhancement
- TRA-1-81+ cell population after acute drug treatment (TRA-1-81+ SW1990 cells): highly enriched
